# Assay results: patent US12686673B2 (Blueprint Medicines Corporation, priority 2020, dated 2026)
# Counter-ions that a name gives are not always drawn. Like-named read-outs stand apart in the source and are kept apart here.
# Experiments:
# Format in all cases: cell-based
# [1] = molecular target: HER2 (A775_G776insYVMA) expressing Ba/F3 stable cell line (Homo sapiens, UniProt P04626, DUP772-775, cells depend on it); assay: Cellular proliferation (Alamar Blue) assay, HER2 A775_G776insYVMA Ba/F3; details: 72 hr, read-out: YVMA IC50
# Chain of HER2 (A775_G776insYVMA) expressing Ba/F3 stable cell line (P04626 with tags, fused parts or gaps DUP772-775): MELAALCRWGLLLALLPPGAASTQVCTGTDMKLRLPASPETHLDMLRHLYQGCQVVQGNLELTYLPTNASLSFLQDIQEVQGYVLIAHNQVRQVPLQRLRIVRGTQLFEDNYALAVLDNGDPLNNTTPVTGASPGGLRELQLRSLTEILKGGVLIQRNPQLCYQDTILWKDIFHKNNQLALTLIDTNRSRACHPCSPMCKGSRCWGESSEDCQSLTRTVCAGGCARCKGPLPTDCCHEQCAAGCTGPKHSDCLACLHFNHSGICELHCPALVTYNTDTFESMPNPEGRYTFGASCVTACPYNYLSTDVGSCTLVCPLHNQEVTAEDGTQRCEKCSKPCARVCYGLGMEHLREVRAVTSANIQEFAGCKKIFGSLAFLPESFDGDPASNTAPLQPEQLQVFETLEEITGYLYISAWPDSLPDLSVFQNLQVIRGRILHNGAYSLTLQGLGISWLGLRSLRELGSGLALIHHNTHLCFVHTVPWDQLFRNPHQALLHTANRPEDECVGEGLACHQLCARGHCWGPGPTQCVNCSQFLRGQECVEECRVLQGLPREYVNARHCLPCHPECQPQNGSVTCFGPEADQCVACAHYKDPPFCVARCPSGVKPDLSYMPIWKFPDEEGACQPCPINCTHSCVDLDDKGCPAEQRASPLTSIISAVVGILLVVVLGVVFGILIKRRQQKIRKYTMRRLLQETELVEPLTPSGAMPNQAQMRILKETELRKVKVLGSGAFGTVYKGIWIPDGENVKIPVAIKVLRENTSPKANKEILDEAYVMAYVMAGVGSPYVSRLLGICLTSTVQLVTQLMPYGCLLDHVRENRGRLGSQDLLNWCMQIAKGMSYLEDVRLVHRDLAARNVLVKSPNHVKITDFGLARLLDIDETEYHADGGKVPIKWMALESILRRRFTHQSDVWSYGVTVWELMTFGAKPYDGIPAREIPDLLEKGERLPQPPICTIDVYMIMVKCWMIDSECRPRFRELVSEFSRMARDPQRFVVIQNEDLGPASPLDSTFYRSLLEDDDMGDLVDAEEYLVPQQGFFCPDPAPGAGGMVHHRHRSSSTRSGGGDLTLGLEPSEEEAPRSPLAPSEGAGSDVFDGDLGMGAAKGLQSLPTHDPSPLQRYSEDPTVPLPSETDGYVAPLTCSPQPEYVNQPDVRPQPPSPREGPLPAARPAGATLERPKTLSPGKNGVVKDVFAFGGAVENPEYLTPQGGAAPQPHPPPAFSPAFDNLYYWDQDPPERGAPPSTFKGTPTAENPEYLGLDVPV
# Description: • 1. EGFR(D770_N771insSVD) expressing Ba/F3 stable cell line • 2. EGFR (A767_dupASV) expressing Ba/F3 stable cell line • 3. A431 cells • 4. EGFR (H773insNPH) expressing Ba/F3 stable cell line • 5. HER2 (A775_G776insYVMA) expressing Ba/F3 stable cell line Assay Procedure: • 1. Seed cells at 5000 for A431 and 15,000 cells for Ba/F3 in 100 μL/well in complete media (for A431: DMEM with […] and for Ba/F3 cells: RPMI with 10% FBS) in 96-well tissue culture plate. Leave outer wells without cells for background measurements. Incubate at 37 degree Celsius in […] humidified incubator for 16-18 hours. • 2. Add 0.025 ml of 5× concentration compound dilution or DMSO control. Final compound concentration range is 10-0.0005 μM prepared in 3-fold serial dilutions. Incubate for 72 hr at 37 degree Celsius in […] humidified incubator. • 3. Add 0.0125 ml Alamar Blue™ reagent to each well with multi-channel pipette and tap gently on each side of the plate to mix. Incubate for 3 hours at 37 degree Celsius in 5% CO2 humidified incubator. • 4. […] Data analysis was performed using XLfit 5.5.0.5.
# [2] = molecular target: EGFR (A767_dupASV) expressing Ba/F3 stable cell line (Homo sapiens, UniProt P00533, DUP767-769, cells depend on it); assay: Cellular proliferation (Alamar Blue) assay, EGFR A767_dupASV Ba/F3; details: 72 hr, read-out: A767 IC50
# Chain of EGFR (A767_dupASV) expressing Ba/F3 stable cell line (P00533 with tags, fused parts or gaps DUP767-769): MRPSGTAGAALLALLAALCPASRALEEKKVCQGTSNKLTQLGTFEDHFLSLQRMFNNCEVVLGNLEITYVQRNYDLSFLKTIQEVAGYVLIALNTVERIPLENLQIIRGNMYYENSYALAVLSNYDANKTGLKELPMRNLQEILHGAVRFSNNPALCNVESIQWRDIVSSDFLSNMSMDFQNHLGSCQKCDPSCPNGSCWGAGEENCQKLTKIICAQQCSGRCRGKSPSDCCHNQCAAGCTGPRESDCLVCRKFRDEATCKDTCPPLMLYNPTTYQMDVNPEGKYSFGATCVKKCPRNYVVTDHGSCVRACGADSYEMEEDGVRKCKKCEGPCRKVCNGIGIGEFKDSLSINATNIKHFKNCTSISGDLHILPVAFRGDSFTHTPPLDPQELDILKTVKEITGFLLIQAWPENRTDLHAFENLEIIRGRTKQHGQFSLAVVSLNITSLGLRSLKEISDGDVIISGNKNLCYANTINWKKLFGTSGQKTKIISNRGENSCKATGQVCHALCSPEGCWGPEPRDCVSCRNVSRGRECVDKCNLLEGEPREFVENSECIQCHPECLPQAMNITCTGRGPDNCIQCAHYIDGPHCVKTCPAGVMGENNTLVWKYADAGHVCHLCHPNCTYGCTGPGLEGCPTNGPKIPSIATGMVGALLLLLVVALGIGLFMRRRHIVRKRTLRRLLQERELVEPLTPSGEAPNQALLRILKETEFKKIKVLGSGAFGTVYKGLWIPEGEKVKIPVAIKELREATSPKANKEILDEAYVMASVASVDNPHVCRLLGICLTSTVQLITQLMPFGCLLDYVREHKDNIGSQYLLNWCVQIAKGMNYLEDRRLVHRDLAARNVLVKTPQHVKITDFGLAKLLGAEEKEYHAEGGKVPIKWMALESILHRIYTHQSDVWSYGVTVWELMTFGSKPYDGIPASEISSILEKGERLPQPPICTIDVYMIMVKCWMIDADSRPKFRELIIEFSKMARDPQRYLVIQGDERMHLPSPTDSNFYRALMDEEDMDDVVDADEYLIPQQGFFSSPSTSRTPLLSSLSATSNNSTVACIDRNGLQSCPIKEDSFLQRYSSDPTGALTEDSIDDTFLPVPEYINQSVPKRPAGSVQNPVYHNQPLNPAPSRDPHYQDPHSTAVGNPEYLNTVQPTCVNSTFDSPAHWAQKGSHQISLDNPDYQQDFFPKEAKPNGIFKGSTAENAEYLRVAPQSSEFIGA
# How it was run: (§1)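 Alamar Blue read-out, 3 h at 37 °C, after 72 hr compound exposure of Ba/F3 transfectants (15,000 cells/well, RPMI + 10% FBS, plated 16-18 h earlier).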
# A431 cells = assay: Cellular proliferation (Alamar Blue) assay, A431
# [3] = molecular target: EGFR(D770_N771insSVD) expressing Ba/F3 stable cell line (Homo sapiens, UniProt P00533, DUP768-770, cells depend on it); assay: Cellular proliferation (Alamar Blue) assay, EGFR D770_N771insSVD Ba/F3; details: 72 hr, read-out: D770 IC50
# Chain of EGFR(D770_N771insSVD) expressing Ba/F3 stable cell line (P00533 with tags, fused parts or gaps DUP768-770): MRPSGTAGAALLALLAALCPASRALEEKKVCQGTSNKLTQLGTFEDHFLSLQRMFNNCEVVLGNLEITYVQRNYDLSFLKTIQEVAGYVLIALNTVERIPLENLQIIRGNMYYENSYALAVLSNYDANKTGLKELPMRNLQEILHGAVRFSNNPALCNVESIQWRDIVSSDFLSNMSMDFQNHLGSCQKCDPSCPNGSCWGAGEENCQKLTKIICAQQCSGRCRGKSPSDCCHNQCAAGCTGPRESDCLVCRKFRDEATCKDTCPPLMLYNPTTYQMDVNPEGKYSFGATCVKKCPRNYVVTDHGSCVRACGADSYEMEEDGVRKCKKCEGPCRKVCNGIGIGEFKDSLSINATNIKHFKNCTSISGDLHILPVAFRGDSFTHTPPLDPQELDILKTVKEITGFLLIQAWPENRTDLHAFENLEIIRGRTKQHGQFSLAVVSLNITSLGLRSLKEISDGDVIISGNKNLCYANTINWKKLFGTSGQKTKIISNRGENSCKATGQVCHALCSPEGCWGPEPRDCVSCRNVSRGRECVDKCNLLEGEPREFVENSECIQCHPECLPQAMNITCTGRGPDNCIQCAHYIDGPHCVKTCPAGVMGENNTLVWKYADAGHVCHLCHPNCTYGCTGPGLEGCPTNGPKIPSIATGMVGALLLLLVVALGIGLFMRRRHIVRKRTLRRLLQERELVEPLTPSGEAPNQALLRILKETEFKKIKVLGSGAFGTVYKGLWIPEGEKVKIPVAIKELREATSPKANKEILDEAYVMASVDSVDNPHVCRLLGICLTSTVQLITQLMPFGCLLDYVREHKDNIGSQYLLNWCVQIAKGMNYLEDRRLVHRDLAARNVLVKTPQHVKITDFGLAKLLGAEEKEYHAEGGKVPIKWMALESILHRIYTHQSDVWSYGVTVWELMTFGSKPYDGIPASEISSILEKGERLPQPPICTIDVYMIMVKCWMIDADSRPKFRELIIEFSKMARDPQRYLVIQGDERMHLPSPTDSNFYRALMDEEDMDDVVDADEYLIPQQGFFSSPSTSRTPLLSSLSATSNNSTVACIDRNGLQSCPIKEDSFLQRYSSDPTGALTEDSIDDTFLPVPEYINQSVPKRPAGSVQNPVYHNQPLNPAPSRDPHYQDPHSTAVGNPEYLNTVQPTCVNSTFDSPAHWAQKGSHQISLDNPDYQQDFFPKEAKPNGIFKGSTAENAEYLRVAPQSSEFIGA
# How it was run: as §1
# [4] = Homo sapiens, A-431; A431 cells, 72 hr, Alamar Blue; read-out: A431 IC50
# [5] = Homo sapiens, A-431; A431 cells, Alamar Blue, 72 hr; read-out: A431 IC50
SMILES,GI50 [1],GI50 [2],IC50 (A431 cells; [4]),GI50 [3],IC50 (A431 cells; [5])
"C=CC(=O)Nc1ccc(F)c(Oc2nc(Nc3cnn(C)c3)ncc2Cl)c1 [Compound 166, N-(3-((5-chloro-2-((1-methyl-1H-pyrazol-4-yl)amino)pyrimidin-4-yl)oxy)-4-fluorophenyl)acrylamide]",1690 nM,1250 nM,–,1320 nM,> 10000 nM
"CN(C)C/C=C/C(=O)Nc1ccc(F)c(-c2nc(Nc3cnn(C)c3)ncc2Cl)c1 [Compound 160, (E)-N-(3-(5-chloro-2-((1-methyl-1H-pyrazol-4-yl)amino)pyrimidin-4-yl)-4-fluorophenyl)-4-(dimethylamino)but-2-enamide]",> 10000 nM,> 10000 nM,–,> 10000 nM,> 10000 nM
"C=CC(=O)Nc1ccc(F)c(Nc2nc(Nc3cnn(C)c3)ncc2-c2cccc(OC(F)(F)F)c2)c1 [Compound 96, N-(4-fluoro-3-((2-((1-methyl-1H-pyrazol-4-yl)amino)-5-(3-(trifluoromethoxy)phenyl)pyrimidin-4-yl)amino)phenyl)acrylamide trifluoroacetate]",7730 nM,790 nM,–,345 nM,1080 nM
"C=CC(=O)Nc1cccc(Oc2nc(Nc3cnn(C)c3)nnc2Cl)c1 [Compound 157, N-(3-((6-chloro-3-((1-methyl-1H-pyrazol-4-yl)amino)-1,2,4-triazin-5-yl)oxy)phenyl)acrylamide]",3660 nM,> 10000 nM,–,> 10000 nM,> 10000 nM
"C=CC(=O)Nc1ccc(OC)c(Nc2nc(Nc3cnn(C)c3)ncc2Cl)c1 [Compound 13, N-(3-((5-chloro-2-((1-methyl-1H-pyrazol-4-yl)amino)pyrimidin-4-yl)amino)-4-methoxyphenyl)acrylamide]",> 10000 nM,> 10000 nM,–,> 10000 nM,> 10000 nM
"C=CC(=O)Nc1ccc(F)c(Nc2nc(Nc3ccnn3C)ncc2Cl)c1 [Compound 31, N-(3-((5-chloro-2-((1-methyl-1H-pyrazol-5-yl)amino)pyrimidin-4-yl)amino)-4-fluorophenyl)acrylamide]",5180 nM,9870 nM,–,9960 nM,9800 nM
"C=CC(=O)Nc1cccc(Nc2nc(Nc3cnn(C)c3)ncc2-c2ccc(C(F)(F)F)cc2)c1F [Compound 148, N-(2-fluoro-3-((2-((1-methyl-1H-pyrazol-4-yl)amino)-5-(4-(trifluoromethyl)phenyl)pyrimidin-4-yl)amino)phenyl)acrylamide trifluoroacetate]",349 nM,56 nM,–,–,83 nM
"C=CC(=O)Nc1cc(Br)cc(Nc2nc(Nc3cnn(C)c3)ncc2-c2ccc(C(F)(F)F)cc2)c1 [Compound 290, N-[3-bromo-5-({2-[(1-methyl-1H-pyrazol-4-yl)amino]-5-[4-(trifluoromethyl)phenyl]pyrimidin-4-yl}amino)phenyl]prop-2-enamide]",2920 nM,–,> 9780 nM,–,–
"C=CC(=O)Nc1cc(Nc2nc(Nc3cnn(C)c3)ncc2Cl)cc2ccccc12 [Compound 297, N-(3-((5-chloro-2-((1-methyl-1H-pyrazol-4-yl)amino)pyrimidin-4-yl)amino)naphthalen-1-yl)acrylamide]",> 10000 nM,–,7790 nM,–,–
"C=CC(=O)Nc1ccc(F)c(Nc2nc(Nc3cnn(C)c3)ncc2-c2ccccc2N(C)C)c1 [Compound 267, N-(3-((5-(2-(dimethylamino)phenyl)-2-((1-methyl-1H-pyrazol-4-yl)amino)pyrimidin-4-yl)amino)-4-fluorophenyl)acrylamide]",> 10000 nM,–,5800 nM,–,–
"C=CC(=O)Nc1ccc(F)c(Nc2nc(Nc3cnn(C)c3)ncc2-c2cccc3ccncc23)c1 [Compound 268, N-(4-fluoro-3-((5-(isoquinolin-8-yl)-2-((1-methyl-1H-pyrazol-4-yl)amino)pyrimidin-4-yl)amino)phenyl)acrylamide]",> 10000 nM,–,3440 nM,–,–
"C=CC(=O)Nc1ccc(F)c(Nc2nc(Nc3ccc(CN(C)C)cc3)ncc2Cl)c1 [Compound 287, N-(3-((5-chloro-2-((4-((dimethylamino)methyl)phenyl)amino)pyrimidin-4-yl)amino)-4-fluorophenyl)acrylamide]",764 nM,–,473 nM,–,–
"C=CC(=O)Nc1ccc(F)c(Nc2nc(Nc3cnn(C(C)(C)C#N)c3)ncc2C2=CCOC2)c1 [Compound 272, N-(3-((2-((1-(2-cyanopropan-2-yl)-1H-pyrazol-4-yl)amino)-5-(2,5-dihydrofuran-3-yl)pyrimidin-4-yl)amino)-4-fluorophenyl)acrylamide]",602 nM,–,1010 nM,–,–

# Results, then the molecule that gave them:
GI50 [1],GI50 [2],IC50 (A431 cells; [4]),GI50 [3],IC50 (A431 cells; [5]),SMILES
688 nM,131 nM,28 nM,93 nM,–,"C=CC(=O)Nc1ccc(F)c(Nc2nc(Nc3cn(C)nc3Cl)ncc2-c2ccc(Br)cc2)c1 [Compound 204, N-(3-((5-(4-bromophenyl)-2-((3-chloro-1-methyl-1H-pyrazol-4-yl)amino)pyrimidin-4-yl)amino)-4-fluorophenyl)acrylamide]"
2070 nM,303 nM,368 nM,299 nM,–,"C=CC(=O)Nc1ccc(F)c(Nc2nc(Nc3cnn(C(C)(C)C#N)c3)ncc2-c2ccc(C(F)(F)F)cc2)c1 [Compound 246, N-(3-((2-((1-(2-cyanopropan-2-yl)-1H-pyrazol-4-yl)amino)-5-(4-(trifluoromethyl)phenyl)pyrimidin-4-yl)amino)-4-fluorophenyl)acrylamide]"
402 nM,121 nM,46 nM,76 nM,–,"C=CC(=O)Nc1ccc(F)c(Nc2nc(Nc3cn(CCN(C)C)nc3Cl)ncc2-c2ccc(Br)cc2)c1 [Compound 208, N-(3-((5-(4-bromophenyl)-2-((3-chloro-1-(2-(dimethylamino)ethyl)-1H-pyrazol-4-yl)amino)pyrimidin-4-yl)amino)-4-fluorophenyl)acrylamide]"
83 nM,27 nM,–,26 nM,8 nM,"C=CC(=O)Nc1ccc(F)c(Nc2nc(Nc3cnn(C)c3)ncc2-c2ccc(CC(F)(F)F)cc2)c1 [Compound 130, N-(4-fluoro-3-((2-((1-methyl-1H-pyrazol-4-yl)amino)-5-(4-(2,2,2-trifluoroethyl)phenyl)pyrimidin-4-yl)amino)phenyl)acrylamide trifluoroacetate]"
217 nM,34 nM,44 nM,35 nM,–,"C=CC(=O)Nc1cccc(Nc2nc(Nc3cnn(C)c3)ncc2-c2ccc(Br)cc2)c1F [Compound 202, N-(3-((5-(4-bromophenyl)-2-((1-methyl-1H-pyrazol-4-yl)amino)pyrimidin-4-yl)amino)-2-fluorophenyl)acrylamide]"
120 nM,–,22 nM,29 nM,–,"C=CC(=O)Nc1cccc(Nc2nc(Nc3cnn(C)c3)ncc2-c2ccc(Br)cc2)c1 [Compound 274, N-(3-((5-(4-bromophenyl)-2-((1-methyl-1H-pyrazol-4-yl)amino)pyrimidin-4-yl)amino)phenyl)acrylamide]"
985 nM,–,190 nM,–,–,"C=CC(=O)Nc1ccc(F)c(Nc2nc(Nc3cnn(C)c3)ncc2-c2ccc3c(cnn3C)c2)c1 [Compound 270, N-(4-fluoro-3-((5-(1-methyl-1H-indazol-5-yl)-2-((1-methyl-1H-pyrazol-4-yl)amino)pyrimidin-4-yl)amino)phenyl)acrylamide]"
